We go through 13 compounds from patent publication US9796726B2, “Dihydroquinoline pyrazolyl compounds” (Hoffmann-La Roche Inc., priority 2014, dated 2017).

The target in one experiment is T1, human CYP11B1 (Homo sapiens, UniProt P15538).
T1 construct: The expression plasmids contains the ORF for either human/cyno CYP11B1 or CYP11B2; expressed in transfected cells
T1 sequence (P15538 25-503): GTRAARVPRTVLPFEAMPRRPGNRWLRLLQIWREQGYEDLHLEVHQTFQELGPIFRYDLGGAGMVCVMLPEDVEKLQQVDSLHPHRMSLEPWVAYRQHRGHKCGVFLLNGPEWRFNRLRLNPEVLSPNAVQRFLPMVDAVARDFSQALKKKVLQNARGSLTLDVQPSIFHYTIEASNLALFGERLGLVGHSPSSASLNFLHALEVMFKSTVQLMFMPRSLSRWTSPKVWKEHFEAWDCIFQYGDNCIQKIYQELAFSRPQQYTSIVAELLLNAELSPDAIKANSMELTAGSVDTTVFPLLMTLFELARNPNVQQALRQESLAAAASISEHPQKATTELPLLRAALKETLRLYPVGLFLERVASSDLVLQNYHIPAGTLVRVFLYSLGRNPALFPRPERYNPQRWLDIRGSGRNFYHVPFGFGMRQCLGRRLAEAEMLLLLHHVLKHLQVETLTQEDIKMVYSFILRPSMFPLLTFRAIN
Kind of experiment: G-402 cellular enzyme assay, human CYP11B1 (cortisol release, HTRF). It counts as cell-based. The note with it: stable G-402 cells expressing human CYP11B1; 1 μM Deoxycortisol; 16 h. From the text:
Herein we identified the use of the G-402 cell line as a host cell to ectopically express (transiently or stably) enzymes of the CYP11 family. Specifically we developed stable G-402 cells expressing ectopically human CYP11B1, human CYP11B2, human CYP11A1, cynmolgus CYP11B1 or cynomolgus CYP11B2 enzyme activity. Importantly the identified cell line G-402 expresses co-factors (adrenodoxin and adrenodoxin reductase) important for the activity of the CYP11 family and no relevant enzyme activity of the CYP11 family (in comparison to H295R cells) was detected in these cells. Therefore the G-402 cell line is uniquely suited as a host cell for the ectopic expression of enzymes from the CYP11 family.
G-402 cells can be obtained from ATCC (CRL-1440) and were originally derived from a renal leiomyoblastoma.
The expression plasmids contains the ORF for either human/cyno CYP11B1 or CYP11B2 under the control of a suitable promoter (CMV-promoter) and a suitable resistance marker (neomycin). Using standard techniques the expression plasmid is transfected into G-402 cells and these cells are then selected for expressing the given resistance markers. Individual cell-clones are then selected and assessed for displaying the desired enzymatic activity using 11-Deoxycorticosterone (Cyp11B2) or 11-Deoxycortisol (Cyp11B1) as a substrate.
G-402 cells expressing CYP11 constructs were established as described above and maintained in McCoy's 5a Medium Modified, ATCC Catalog No. 30-2007 containing 10% FCS and 400 μg/ml G418 (Geneticin) at 37° C. under an atmosphere of 5% CO2/95% air. Cellular enzyme assays were performed in DMEM/F12 medium containing 2.5% charcoal treated FCS and appropriate concentration of substrate (0.3-10 uM 11-Deoxycorticosterone, 11-Deoxycortisol or Corticosterone). For assaying enzymatic activity, cells were plated onto 96 well plates and incubated for 16 h. An aliquot of the supernatant is then transferred and analyzed for the concentration of the expected product (Aldosterone for CYP11B2; Cortisol for CYP11B1). The concentrations of these steroids can be determined using HTRF assays from CisBio analyzing either Aldosterone or Cortisol.
Inhibition of the release of produced steroids can be used as a measure of the respective enzyme inhibition by test compounds added during the cellular enzyme assay. The dose dependent inhibition of enzymatic activity by a compound is calculated by means of plotting added inhibitor concentrations (x-axes) vs. measured steroid/product level (y-axes). The inhibition is then calculated by fitting the following 4-parameter sigmoidal function (Morgan-Mercer-Flodin (MMF) model) to the raw data points using the least squares method:
[formula] wherein, A is the maximum y value, B is the EC50 factor determined using XLFit, C is the minimum y value and D is the slope value.
EC50 values for compounds claimed herein were tested with the G402-based assay system described. Cyp11B2 enzyme activity was tested in presence of 1 μM Deoxycorticosterone and variable amounts of inhibitors; Cyp11B1 enzyme activity was tested in presence of 1 μM Deoxycortisol and variable amounts of inhibitors.

The conditions of experiment [1]: rat, cited from earlier work; for plasma aldosterone: FAD286 following 4 weeks of treatment, spironolactone at 4 and 8 weeks.
For another experiment, the target named is CYP11B2 (Homo sapiens, UniProt P19099). Particulars: patients with primary aldosteronism, cited from earlier work.

Bounds are passed on as bounds.

Sequence of CYP11B2 (P19099 25-503): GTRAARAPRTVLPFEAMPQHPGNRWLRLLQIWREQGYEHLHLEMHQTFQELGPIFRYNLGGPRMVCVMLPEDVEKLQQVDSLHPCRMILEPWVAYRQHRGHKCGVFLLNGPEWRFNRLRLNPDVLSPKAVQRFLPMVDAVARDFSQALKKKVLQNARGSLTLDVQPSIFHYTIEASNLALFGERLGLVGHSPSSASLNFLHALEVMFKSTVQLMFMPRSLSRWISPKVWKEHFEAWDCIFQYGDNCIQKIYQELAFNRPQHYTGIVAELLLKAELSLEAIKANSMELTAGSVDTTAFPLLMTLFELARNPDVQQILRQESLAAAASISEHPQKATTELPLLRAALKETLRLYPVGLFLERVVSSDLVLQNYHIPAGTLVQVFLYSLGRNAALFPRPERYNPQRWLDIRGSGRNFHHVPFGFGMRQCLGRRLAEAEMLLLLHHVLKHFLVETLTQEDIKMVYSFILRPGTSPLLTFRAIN

For `CN1C(=O)CCc2cc(-c3n[nH]cc3CN3CCN(C(=O)c4cnn(C)c4)CC3)cc(Cl)c21` [Example 44, 8-Chloro-1-methyl-6-[4-[[4-(1-methylpyrazole-4-carbonyl)piperazin-1-yl]methyl]-1H-pyrazol-3-yl]-3,4-dihydroquinolin-2-one], on human CYP11B1, the concentration giving a half-maximal response (EC50) (in general, the midpoint of the concentration-response curve) is above 30 nM.
With `CC(=O)N1CCN(Cc2c[nH]nc2-c2ccc3c(c2)CCC(=O)N3C)C[C@H]1C` [Example 49, (−)-6-[4-[[(3R)-4-Acetyl-3-methyl-piperazin-1-yl]methyl]-1H-pyrazol-3-yl]-1-methyl-3,4-dihydroquinolin-2-one], the EC50 on human CYP11B1 is above 30 nM.
As to `CN1C(=O)CCc2c1ccc(-c1n[nH]cc1CN1CC3(C1)CN(C(=O)c1cnn(C)c1)C3)c2Cl` [Example 53, 5-Chloro-1-methyl-6-[4-[[2-(1-methylpyrazole-4-carbonyl)-2,6-diazaspiro[3.3]heptan-6-yl]methyl]-1H-pyrazol-3-yl]-3,4-dihydroquinolin-2-one], at human CYP11B1, the EC50 was above 30 nM.
`CCS(=O)(=O)N1CC2(CN(Cc3c[nH]nc3-c3ccc4c(c3Cl)CCC(=O)N4C)C2)C1` [Example 54, 5-Chloro-6-[4-[(2-ethylsulfonyl-2,6-diazaspiro[3.3]heptan-6-yl)methyl]-1H-pyrazol-3-yl]-1-methyl-3,4-dihydroquinolin-2-one]: at human CYP11B1, the EC50 is above 30 nM.
`CCS(=O)(=O)N1CC2(CN(Cc3cn[nH]c3-c3ccc4c(c3)CCC(=O)N4C)C2)C1` [Example 56, 6-[4-[(2-Ethylsulfonyl-2,6-diazaspiro[3.3]heptan-6-yl)methyl]-1H-pyrazol-3-yl]-1-methyl-3,4-dihydroquinolin-2-one] displayed an EC50 at human CYP11B1 above 30 nM.
As to `CC(=O)N1CC2(CN(Cc3cn[nH]c3-c3ccc4c(c3Cl)CCC(=O)N4C)C2)C1` [Example 59, 6-[4-[(2-Acetyl-2,6-diazaspiro[3.3]heptan-6-yl)methyl]-1H-pyrazol-3-yl]-5-chloro-1-methyl-3,4-dihydroquinolin-2-one], the EC50 on human CYP11B1 was above 30 nM.
As for `CN1C(=O)CCc2cc(-c3[nH]ncc3CN3CC4(C3)CN(C(=O)c3cnn(C)c3)C4)cc(Cl)c21` [Example 60, 8-Chloro-1-methyl-6-[4-[[2-(1-methylpyrazole-4-carbonyl)-2,6-diazaspiro[3.3]heptan-6-yl]methyl]-1H-pyrazol-3-yl]-3,4-dihydroquinolin-2-one], the EC50 at human CYP11B1 was above 30 nM.
Consider `CCS(=O)(=O)N1CC2(CN(Cc3cn[nH]c3-c3cc(Cl)c4c(c3)CCC(=O)N4C)C2)C1` [Example 62, 8-Chloro-6-[4-[(2-ethylsulfonyl-2,6-diazaspiro[3.3]heptan-6-yl)methyl]-1H-pyrazol-3-yl]-1-methyl-3,4-dihydroquinolin-2-one], for which the EC50 on human CYP11B1 is above 30 nM.
Same read-out and setting: in the case of `CN1C(=O)CCc2cc(-c3[nH]ncc3CN3CC4(C3)CN(C(=O)c3nccn3C)C4)ccc21` [Example 63, 1-Methyl-6-[4-[[2-(1-methylimidazole-2-carbonyl)-2,6-diazaspiro[3.3]heptan-6-yl]methyl]-1H-pyrazol-3-yl]-3,4-dihydroquinolin-2-one] it was above 30 nM; in that of `CN1C(=O)CCc2cc(-c3[nH]ncc3CN3CC4(C3)CN(C(=O)c3ncccc3Cl)C4)ccc21` [Example 64, 6-[4-[[2-(3-Chloropyridine-2-carbonyl)-2,6-diazaspiro[3.3]heptan-6-yl]methyl]-1H-pyrazol-3-yl]-1-methyl-3,4-dihydroquinolin-2-one], above 30 nM.
For `N#Cc1ccc(C2CCCc3cncn32)cc1` (centres unmarked) [FAD286], the plasma aldosterone entry in experiment [1] is reported as “reduced”.
Turning to `N#Cc1ccc([C@H]2CCc3cncn32)c(F)c1` [LCI699], on CYP11B2, the blood pressure entry is listed as “mildly decreased”, the hypokalemia result is “corrected” and the “selectivity (effects on the glucocorticoid axis)” value was “poor selectivity”. Further, the circulating aldosterone levels result at CYP11B2 (oral) is recorded as “significantly lower”.
Take `CC(=O)S[C@@H]1CC2=CC(=O)CC[C@]2(C)[C@H]2CC[C@@]3(C)[C@@H](CC[C@@]34CCC(=O)O4)[C@H]12` [spironolactone]: in experiment [1], the plasma aldosterone result is recorded as “increased”; the “angiotensin II and salt-stimulated PAI-1 mRNA expression in the aorta and the heart” value is given as “enhanced”.
